Laboratory results: patent publication EP0366226A1, “Stabilized thiocarbonate solutions and the use thereof for controlling soil pests” (UNION OIL COMPANY OF CALIFORNIA, priority 1988, dated 1990)

Experiments:
Fusarium oxysporum = experiment: Fungicidal test, radial growth of mycelia from treated agar blocks; type: cell-based; settings: listed as Na₂CS₄ (10.6%CS₂)
Experimental: (§1) Thiocarbonate solutions were used in a test of their fungicidal properties. Cultures of four plant pathogenic fungi were grown upon potato dextrose agar at room temperature, in diffuse natural lighting. After one week, square blocks having 2 millimeter sides were cut from the edges of actively drawings mycelia spots on the agar.
(§2) The blocks were immersed in sterile deionized water, as a control, or in dilutions of thiocarbonate solutions using the sterile water, in a closed container. Subsequently, the blocks were removed and placed upon agar in clean plates, and mycelia were allowed to grow for one week.
(§3) Radial growth of mycelia colonies was measured for each of the six to eight replicate plates used for a particular fungus, and average colony radius was calculated. Percent control is defined by the following equation: […]
(§4) Concentrations given for solutions used to treat the agar blocks are expressed in grams of thiocarbonate solution per liter of diluted solution.

Phytophthora cinnamomi = experiment: as above; type: cell-based; settings: 10 g/l; listed as Na₂CS₄ (10.6%CS₂)
Experimental: as §1, §2, §3, §4

Sclerotium rolfsii = experiment: as above; type: cell-based; settings: 10 g/l; listed as Na₂CS₄ (10.6%CS₂)
Experimental: as §1, §2, §3, §4

Verticillium dahliae = experiment: as above; type: cell-based; settings: 1 g/l; listed as Na₂CS₄ (10.6%CS₂)
Experimental: as §1, §2, §3, §4

[1] = CS2 in equilibrium vapor phase over concentrated thiocarbonate solutions (gas chromatography); type: physicochemical; settings: for equilibrium CS₂ concentration in the vapor phase: 24° C., stoichiometric aqueous solution, 12.9 weight percent equivalent carbon disulfide
Experimental: Accordingly, the amount of base, sulfide and/or polysulfide employed should be sufficient to reduce the carbon disulfide partial pressure of the solution by the desired amount, and the amount of additive required to achieve that effect can be easily determined by adding different, known quantities of base, sulfide and/or polysulfide to the desired thiocarbonate solution, confining the vapor space over the solution at 24° C. for a sufficient period of time, e.g. about 24 hours, and analyzing, the vapor phase by gas chromotography for carbon disulfide. Lower additive concentrations will result in somewhat higher CS₂ equilibrium concentrations (e.g. higher CS₂ partial pressures), and higher additive concentrations will result in lower CS₂ partial pressures.
A series of solutions containing 12.9 weight percent equivalent carbon disulfide as sodium tri- or tetrathiocarbonate were prepared by combining sodium hydroxide, deionized water, sulfur (in the case of tetrathiocarbonate only), hydrogen sulfide and carbon disulfide. In the stoichiometric solutions, the reactants were combined in proportions sufficient to provide sodium tri- or tetrathiocarbonate solutions containing 12.9 weight percent equivalent carbon disulfide without any excess reactant. In addition to the stoichiometric solutions, solutions were prepared with systematically increasing sodium hydroxide concentrations at constant equivalent carbon disulfide concentrations, so that excess base was provided in those solutions in the proportions given in the following table.
The respective solutions were prepared by combining the appropriate amounts of base, water, and elemental sulfur (when used to form the tetrathiocarbonate), in 250 ml. bottles. The contents were then tared, and the appropriate amounts of hydrogen sulfide gas were bubbled in with cooling as necessary to form 100 grams of each of the test solutions. The bottles were then capped with Mininert valves, and the appropriate amount of carbon disulfide was added by injecting with a syringe. All sample bottles were shaken overnight to complete the reaction and were then allowed to equilibrate 3 days at 24° C., and the vapor phase was then sampled and analyzed for carbon disulfide by gas chromotography. The results are reported in the following table and show the effects of increasing base concentrations on carbon disulfide partial pressure (carbon disulfide content of the equilibrium vapor phase). Hydrogen sulfide was not detected in the vapor phase of these formulations at an H₂S detection limit of 100 ppmv.
The operation described in Example 19 was repeated with the exception that sodium sulfide (Na₂S) was substituted for excess base. The sodium sulfide was introduced by forming solutions containing incrementally greater amounts of sodium hydroxide and then adding additional amounts of hydrogen sulfide equivalent to the amount of excess sodium hydroxide to convert the excess sodium hydroxide to sodium sulfide in situ.

[2] = Accelerated ageing at 84° C.: effect of additives on thiocarbonate half-life; type: physicochemical; settings: parentheses = decrease
Experimental: The effect of elemental sulfur additions and the addition of free radical scavengers on the half-life of thiocarbonate solutions was determined by an accelerated adding procedure in which the compositions were stored at 84° C. in order to accelerate decomposition and thereby facilitate data acquisition. Incremental additions of 1.0, 3.0 and 5.0 weight percent elemental sulfur were made, and these corresponds to 0.16, 0.48 and 0.86 equivalents of sulfur per equivalent of ammonium sulfide, respectively. Since the solutions contained 1 equivalent of ammonium sulfide per equivalent of ammonium tetrathiocarbonate (based on the weight percent values for those components given above), the amount of ammonium polysulfide in the solution correspond, nominally, to 0.16, 0.48 and 0.86 equivalents polysulfide per equivalent of thiocarbonate for the 3 sulfur concentrations employed.

[3] = Base 0.00 equivalent per equivalent of CS2, sodium salt, 12.9 weight percent equivalent CS2
[4] = Base 0.02 equivalent per equivalent of CS2
[5] = Base 0.04 equivalent per equivalent of CS2
[6] = Base 0.08 equivalent per equivalent of CS2
[7] = Base 0.12 equivalent per equivalent of CS2
[8] = Sulfide 0.02 equivalent per equivalent of CS2
[9] = Sulfide 0.04 equivalent per equivalent of CS2
[10] = Sulfide 0.08 equivalent per equivalent of CS2
[11] = Sulfide 0.12 equivalent per equivalent of CS2
[12] = Sulfide (Na2S) 0.00 equivalent per equivalent of CS2, sodium salt, 12.9 weight percent equivalent CS2
[13] = additive Concentration 1.0 Wt. %
[14] = additive Concentration 5.0 Wt. %

S=C(S)SS [Na₂CS₄, sodium tetrathiocarbonate]
Percent Control Fusarium oxysporum (Fusarium oxysporum; 1 g/l): 4% | Percent Control Fusarium oxysporum (Fusarium oxysporum; 10 g/l): 6% | Percent Control Fusarium oxysporum (Fusarium oxysporum; 100 g/l thiocarbonate solution per liter of diluted solution): 100% | Percent Control Phytophthora cinnamomi (Phytophthora cinnamomi): 37% | Percent Control Sclerotium rolfsii (Sclerotium rolfsii): 100% | Percent Control Verticillium dahliae (Verticillium dahliae): 23% | equilibrium CS₂ concentration in the vapor phase [1]: approximately 14 volume percent | CS₂ in Equilibrium Vapor at 24° C., Vol. % [1, 3]: 14.4 Vol. % | CS₂ in Equilibrium Vapor at 24° C., Vol. % [1, 4]: 0.87 Vol. % | CS₂ in Equilibrium Vapor at 24° C., Vol. % [1, 5]: 0.47 Vol. % | CS₂ in Equilibrium Vapor at 24° C., Vol. % [1, 6]: 0.29 Vol. % | CS₂ in Equilibrium Vapor at 24° C., Vol. % [1, 7]: 0.27 Vol. % | CS₂ in Equilibrium Vapor at 24° C., Vol. % [1, 8]: 6.60 Vol. % | CS₂ in Equilibrium Vapor at 24° C., Vol. % [1, 9]: 0.74 Vol. % | CS₂ in Equilibrium Vapor at 24° C., Vol. % [1, 10]: 0.12 Vol. % | CS₂ in Equilibrium Vapor at 24° C., Vol. % [1, 11]: 0.13 Vol. % | CS₂ in Equilibrium Vapor at 24° C., Vol. % [1, 12]: 14.4 Vol. %

CCN(CC)CC [Triethylamine]
Increase (Decrease) in Half-Life, % [2, 13]: 0%

S=C(S)S [Trithiocarbonate, sodium trithiocarbonate]
equilibrium CS₂ concentration in the vapor phase [1]: 27 volume percent | CS₂ in Equilibrium Vapor at 24° C., Vol. % [1, 3]: 27.5 Vol. % | CS₂ in Equilibrium Vapor at 24° C., Vol. % [1, 4]: 34.2 Vol. % | CS₂ in Equilibrium Vapor at 24° C., Vol. % [1, 5]: 30.0 Vol. % | CS₂ in Equilibrium Vapor at 24° C., Vol. % [1, 6]: 0.67 Vol. % | CS₂ in Equilibrium Vapor at 24° C., Vol. % [1, 7]: 0.16 Vol. % | CS₂ in Equilibrium Vapor at 24° C., Vol. % [1, 8]: 45.9 Vol. % | CS₂ in Equilibrium Vapor at 24° C., Vol. % [1, 9]: 1.39 Vol. % | CS₂ in Equilibrium Vapor at 24° C., Vol. % [1, 10]: 0.57 Vol. % | CS₂ in Equilibrium Vapor at 24° C., Vol. % [1, 11]: 0.42 Vol. % | CS₂ in Equilibrium Vapor at 24° C., Vol. % [1, 12]: 27.5 Vol. %

NC(N)=O [Urea]
Increase (Decrease) in Half-Life, % [2, 14]: 0%

COc1ccc(O)cc1 [p-Methoxyphenol]
Increase (Decrease) in Half-Life, % ([2]; additive Concentration 0.5 Wt. %): 0% | Increase (Decrease) in Half-Life, % [2, 13]: 0% | Increase (Decrease) in Half-Life, % ([2]; additive Concentration 2.0 Wt. %): 0%

Elemental Sulfur
Increase (Decrease) in Half-Life, % [2, 13]: 0% | Increase (Decrease) in Half-Life, % ([2]; additive Concentration 3.0 Wt. %): 16% | Increase (Decrease) in Half-Life, % [2, 14]: 22%
